US20100209519A1, “PHARMACEUTICAL COMPOSITION FOR INHALATION DELIVERY AND FABRICATION METHOD THEREOF” (NATIONAL TAIWAN UNIVERSITY, priority 2009, published 2010)
Like-named read-outs stand apart in the source and are kept apart here.

Tested on: A549 cells
Experiment: CDDP in vitro anticancer activity assay (MTT)
Type: cell-based, human
Description: A549 cells were placed in a 96-well culture plat at a density of 5×10^4 cells per well in 0.1 ml of growth medium and cultured for 24 hours. […] The percentage of cell viability is illustrated as the ratio of the absorbance of treated cells relative to the absorbance of non-treated cells.

IC50 (48 hours, read-out: IC50 Value, 48 hours): 13.6 µM
IC50 (72 hours, read-out: IC50 Value, 72 hours): 5.2 µM
SMILES: [NH2][Pt]([NH2])([Cl])[Cl] [CDDP, Cisplatin]
